Data published in US20230292746A1, “MIXTURES AND COMPOSITIONS COMPRISING 5-FLUORO-4-IMINO-3- METHYL-1-TOSYL-3,4-DIHYDROPYRIMIDIN-2-ONE, AND METHODS OF USE THEREOF” (Adama Makhteshim Ltd., priority 2020, published 2023).
Values joined by “and” are separate entries in the source; they are usually repeats but may differ in a detail not shown here. Identical values can stand only once.

Experiments:
[1] = Storage stability: concentration / degradation of compound of Formula I in composition; type: physicochemical; conditions: for 2W/54° C. analysis (% of 10° C.): non-aqueous composition, 2 weeks at 54° C.
Text: As used herein, the term “stable” when used in connection with chemical stability, e.g. chemically stable, means that the composition meets the chemical stability standards set forth by the Food and Agriculture Organization of the United Nations (FAO) in the Manual on Development and Use of FAO and WHO Specification for Pesticides (First Edition—Third Revision) (the “FAO/WHO Manual”) (available at http://www.fao.org/agriculture/crops/thematic-sitemap/theme/pests/jmps/manual/en/), the entire content of which is hereby incorporate by reference into the subject application. […] The amount of degradation permitted before the degradation is considered to be significant depends on the concentration of the active ingredients in the composition.
The physical and chemical stability of composition of Example 1 were tested under various conditions including CIPAC conditions.

[2] = Water content of composition; type: physicochemical; conditions: non-aqueous composition
Text: As used herein, the term “water content” when used in connection with a composition, a mixture, or a component in the composition or mixture refers to the amount of free water in the composition, mixture or component of the composition or mixture and the water molecules chemically bound to another compound, such as water molecules in a hydrate.

[3] = tested on: Zymoseptoria tritici strain Mg Tri-R6; assay: Fungicidal efficacy on treated wheat leaves inoculated with Z. tritici (AUDPC, intensity of infection); type: in vivo; conditions: 21 dpi
Method: Wheat crop (Winter wheat plants cv. Alixan (Limagrain) at the BBCH 12 growth stage) was treated with compositions comprising the compound of Formula I and adjuvants in different concentrations as built-in composition and/or as tank mix application.
All the tested compositions and mixtures were prepared in a volume of water corresponding to 200 L/ha and used 3 hours after preparation.
The SC composition of Example 1 was mixed with Trycol® (0.2 or 0.4 L per hectare) or Silwet (0.01 L per hectare) which were added as tank mix in 200 L volume of water.
The compositions and mixtures were applied with a hand sprayer at operating pressure of 2 bars. Three replicates (pots) of 6 wheat plants each were used for each condition tested.
After treatment, wheat plants were left to dry at room temperature for 1 hour and then incubated in a climatic chamber: Temperature of 24° C. day/18° C. night—Photoperiod of 16 h light/8 h dark and a Relative Humidity of 65%.
Fragments of the first leaf are cut and transferred in Petri dish containing adapted water agar (6 leaf fragments per Petri dish). Fragments are inoculated with a calibrated pycnospores suspension of Z. tritici strain Mg Tri-R6. […]
After incubation time of 21 days, the intensity of the infection, which is the surface of colonized leaf by Z. tritici strain, is assessed (quantitative criteria). The fungicidal efficacy on each composition is then determined in percent of the untreated control. […]
Disease assessments were carried out 21 days post inoculation (dpi) by measuring the length of the necrosis of the leaf fragment. The intensity of infection was then determined in percent of the total length of the leaf fragment.
The efficacy was calculated based on the Area Under the Disease Progress Curve (AUDPC) which is a quantitative measure of disease intensity over time. […]
The fungicide efficacies were determined from the AUDPC values and expressed in percent of the untreated control.

[4] = 20% Hydrate and 80% Form I Polymorph
[5] = 45% Hydrate, and 55% Form I Polymorph

Compound	2W/54° C. analysis (% of 10° C.) [1, 4]	2W/54° C. analysis (% of 10° C.) [1, 5]	% Water Content [2, 4]	% Water Content [2, 5] [%]	fungicidal efficacy compared to application without adjuvant ([3]; SC composition tank mixed with Silwet® (0.01 L/ha), wheat cv. Alixan)	fungicidal efficacy compared to application without adjuvant ([3]; SC composition tank mixed with Trycol® (0.2 or 0.4 L/ha), wheat cv. Alixan)	fungicidal efficacy compared to application without adjuvant ([3]; two adjuvants: Silwet® or Agnique® BP 420 with PVP or VP/VA, 10 g a.i./ha)	degradation of the compound of Formula I ([1]; 8 weeks of storage at 40° C., with Attagel 50 (0.5%) and Bentone SD-1 (0.5%)) [%]	degradation of the compound of Formula I ([1]; 8 weeks of storage at 40° C., without Attagel 50 and Bentone SD-1)	degradation of the compound of Formula I ([1]; non-aqueous composition with water scavenger) [%]	degradation of the compound of Formula I ([1]; non-aqueous composition without water scavenger)
Cc1ccc(S(=O)(=O)n2cc(F)c(=N)n(C)c2=O)cc1 [Hydrate I, 5-fluoro-4-imino-3-methyl-1-tosyl-3,4-dihydropyrimidin-2(1H)-one]	88.5 % of 10 °C and 88.7 % of 10 °C	89.3 % of 10 °C and 88.6 % of 10 °C	0.24% and 0.22%	0.35	–	–	–	–	–	–	–
Cc1ccc(S(=O)(=O)n2cc(F)c(=N)n(C)c2=O)cc1 [compound of Formula I, 5-fluoro-4-imino-3-methyl-1-tosyl-3,4-dihydropyrimidin-2(1H)-one]	–	–	–	–	increased the efficacy and the effective fungicidal activity	increased the efficacy and the effective fungicidal activity	increased the efficacy and the effective fungicidal activity	4	7-8%	≤ 5	5-10%
